Results on 76 compounds are retold here after the RepoRT retention time repository (doi:10.1021/acs.analchem.2c02893).

The structures appear in SMILES notation.

This data set can be described thus: RP, Thermo Scientific Acclaim RSLC 120 C18, 100 × 2.1 mm, 2.2 µm, 30 °C, 0.2 mL/min, estimated dead time 1.1 min; A: 90% water + 10% methanol + 0.01% formic acid + 5 mM ammonium formate, pH 3.61; B: methanol + 0.01% formic acid + 5 mM ammonium formate, pH 3.61; gradient (min/%B) 0/1 1/1 2/39 13/99.9 15/99.9 15.1/1 20.1/1. The note with it: stereoisomer not certain.
`CC(C)(Oc1ccc(CCNC(=O)c2ccc(Cl)cc2)cc1)C(=O)O` [Bezafibrate]: the LC retention time was 8.77 min.

For `OCCN1CCN(CCCN2c3ccccc3Sc3ccc(C(F)(F)F)cc32)CC1` [Fluphenazine], the LC retention time is 9.93 min.

`CNC(=O)Oc1cc(C)c(S(C)=O)c(C)c1` (stereo unspecified) [Methiocarb-sulfoxide]: the LC retention time is 4.86 min. Regarding `CC1(C)C(C(=O)c2cn(CCCC(F)(F)F)c3ccccc23)C1(C)C` [XLR-12], the LC retention time was 12 min. To `CNCCCC12CCC(c3ccccc31)c1ccccc12` [Maprotiline] belongs 8.08 min.

Turning to `CC(N)Cc1ccc2[nH]ccc2c1` (stereo unspecified) [5-(2-Aminopropyl)indole (5-API)], the LC retention time is 4.07 min. To `Cc1cc(NS(=O)(=O)c2ccc(NO)cc2)no1` [Sulfamethoxazole hydroxylamine] belongs 4.54 min. Regarding `CCCSP(=O)(OCC)SCCC` [Ethoprophos], the LC retention time is 10.2 min. To `CCn1cc(C(=O)O)c(=O)c2cc(F)c(N3CCNCC3)cc21` [Norfloxacin] belongs 4.46 min; to `COc1cc(OC)nc(NC(=O)NS(=O)(=O)c2ncccc2OCC(F)(F)F)n1` [Trifloxysulfuron], 8.11 min. Then `N#Cc1c[nH]cc1-c1cccc2c1OC(F)(F)O2` [Fludioxonil], with 9.48 min; and `CC1CC2C3CCC4=CC(=O)C=CC4(C)C3(F)C(O)CC2(C)C1(O)C(=O)CO` (stereo unspecified) [Dexamethasone], with 8.38 min; and `COc1ccc(-c2ccccc2)cc1NNC(=O)OC(C)C` [Bifenazate], with 9.87 min. Then `Cc1cccc(CN2CCN(C(c3ccccc3)c3ccc(Cl)cc3)CC2)c1` (stereo unspecified) [Meclozine], with 11.3 min. For `NC(=O)N1c2ccccc2CC(O)c2ccccc21` (stereo unspecified) [Carbamazepine -10-Hydroxy], the LC retention time was 5.94 min.

`N#CN=C1SCCN1Cc1ccc(Cl)nc1` [Thiacloprid]: the LC retention time was 5.62 min.

With `CCN(CC)CCN1C(=O)CN=C(c2ccccc2F)c2cc(Cl)ccc21` [Flurazepam], the LC retention time is 6.61 min. To `Fc1cccc(F)c1-c1nnc(-c2ccccc2Cl)nn1` [Flufenzine (Diflovidazin)] belongs 10.8 min. Then `COc1ccc(OC)c(CC(C)N)c1` (stereo unspecified) [2-5-DMA], with 4.78 min; and `CC#CCn1c(N2CCCC(N)C2)nc2c1c(=O)n(Cc1nc(C)c3ccccc3n1)c(=O)n2C` (stereo unspecified) [Linagliptin], with 6.01 min. Then `On1nnc2ccccc21` [Benzotriazole-1-Hydroxy], with 3.88 min. `COC(=O)CSP(=S)(OC)OC`: the LC retention time is 7.16 min. As to `CCN(CC)C(=O)NC1C=C2c3cccc4[nH]cc(c34)CC2N(C)C1` (stereo unspecified) [Lisuride], the LC retention time was 5.92 min. Then `C=CCN1CCC23c4c5ccc(O)c4OC2C(=O)CCC3(O)C1C5` (stereo unspecified) [Naloxone], with 3.44 min. Then `CCCCC1(COC(=O)CCC(=O)O)C(=O)N(c2ccccc2)N(c2ccccc2)C1=O` [Suxibuzone], with 9.61 min. Then `CCC(=O)OCC(=O)C1(OC(=O)CC)C(C)CC2C3CCC4=CC(=O)C=CC4(C)C3(F)C(O)CC21C` (stereo unspecified) [Betamethasone dipropionate], with 11.3 min; and `CC(C)N(C(=O)CS(=O)(=O)O)c1ccccc1` [Propachlor-ESA], with 5.46 min; and `CC(Cc1ccc2c(c1)OCO2)N(C)C` (stereo unspecified) [MDDMA], with 4.08 min. For `CN(C)CCOc1ccc(C(=C(CCCl)c2ccccc2)c2ccccc2)cc1` [Toremifene], the LC retention time is 10.5 min.

Regarding `O=c1[nH]c2ccccc2s1` [Benzothiazole -2-OH], the LC retention time is 6.53 min.

For `COC=C(C(=O)OC)c1ccccc1COc1cccc(C(F)(F)F)n1` [Picoxystrobin], the LC retention time is 10.5 min. Then `O=S(=O)(O)NC1CCCCC1` [Cyclamic acid], with 6.99 min; and `Cc1ccsc1C(=CCCN1CCCC(C(=O)O)C1)c1sccc1C` (stereo unspecified) [Tiagabine], with 8.43 min.

Turning to `CNCCOC(c1ccccc1)c1ccccc1C` (stereo unspecified) [Orphenadrine-Nor (Tofenacin. Elamol)], the LC retention time is 7.54 min. Then `C#CCOS(=O)OC1CCCCC1Oc1ccc(C(C)(C)C)cc1` (stereo unspecified) [Propargite], with 12.8 min.

With `CCCC(C(=O)c1ccc(C)cc1)N1CCCC1` (stereo unspecified) [Pyrovalerone], the LC retention time is 6.03 min. Then `COc1cc2nc(N3CCN(C(=O)c4ccco4)CC3)nc(N)c2cc1OC` [Prazosin], with 5.34 min; and `CC(=O)OCC(=O)C1(O)CCC2C3CCC4=CC(=O)CCC4(C)C3C(O)CC21C` (stereo unspecified) [Hydrocortisone 21-acetate], with 8.8 min.

In the case of `CC=C1CC(C)C(C)(O)C(=O)OCC2=CC[N+]3([O-])CCC(OC1=O)C23` (stereo unspecified) [Senecionine-N-oxide], the LC retention time was 5.07 min. For `CN1CCN(C(=O)OC2c3nccnc3C(=O)N2c2ccc(Cl)cn2)CC1` (stereo unspecified) [Zopiclone], the LC retention time is 4.89 min. Then `COC1=CC(=O)CC(C)C12Oc1c(Cl)c(OC)cc(OC)c1C2=O` (stereo unspecified) [Griseofulvin], with 8.05 min; and `CC(C)OC(=O)C(C)(C)Oc1ccc(C(=O)c2ccc(Cl)cc2)cc1` [Fenofibrate], with 12.6 min; and `Cc1cn(C2CC(N=[N+]=[N-])C(CO)O2)c(=O)[nH]c1=O` (stereo unspecified) [Zidovudine], with 4.56 min.

For `CN1CCN(C(c2ccccc2)c2ccccc2)CC1` [Cyclizine], the LC retention time is 6.94 min. To `CN1CCN(C2=Nc3ccccc3Sc3ccc(Cl)cc32)CC1` [Clothiapine] belongs 8.96 min. Then `CC1(C)C(C(=O)c2cn(CCN3CCOCC3)c3ccccc23)C1(C)C` [A-796.260], with 10.7 min; and `COc1cc(CNC(=O)CCCCC=CC(C)C)ccc1O` [Capsaicin], with 9.83 min; and `O=C(Nc1ccc(Cl)cc1C(O)c1ccccc1)c1ccncc1` (stereo unspecified) [Inabenfide], with 9.27 min. Take `CNCC(O)c1cccc(NS(C)(=O)=O)c1` (stereo unspecified) [Amidephrine]: the LC retention time was 2.54 min. Then `CCOC(=O)C(CCc1ccccc1)NC(C)C(=O)N1C(C(=O)O)CC2CCCCC21` (stereo unspecified) [Trandolapril], with 9.55 min; and `CCCCOc1ccc(C(=O)OCCN(CC)CC)cc1` [Butoxycaine], with 11.3 min; and `CN(CC=CC#CC(C)(C)C)Cc1cccc2ccccc12` [Terbinafine], with 11 min. To `C=CCOC(=O)C(C)(C)OC(=O)c1cc(-n2c(=O)cc(C(F)(F)F)n(C)c2=O)ccc1Cl` [Butafenacil] belongs 9.89 min; to `CC=C1N(C)C(C)CC1(c1ccccc1)c1ccccc1` (stereo unspecified) [EDDP], 6.38 min; to `CCSC(=O)N(CC(C)C)CC(C)C` [Butylate], 12 min. With `COc1cc(OC)nc(NC(=O)NS(=O)(=O)N(C)S(C)(=O)=O)n1` [Amidosulfuron], the LC retention time is 6.77 min. Turning to `CN(C)CCc1c[nH]c2ccccc12` [DMT (Dimethyltryptamine)], the LC retention time is 3.94 min. Then `Cc1ccc(C(=O)c2cn(CCCCCO)c3ccccc23)c2ccccc12` [JWH-122-M-N-5-OH-Pentyl], with 10.6 min. Then `c1ccc(CN(CC2=NCCN2)c2ccccc2)cc1` [Antazoline], with 6.41 min. To `CC(=O)Nc1cc(NS(=O)(=O)C(F)(F)F)c(C)cc1C` [Mefluidide] belongs 6.85 min; to `COc1cc(CC(C)N)c(OC)cc1C` (stereo unspecified) [DOM (2.5-Dimethoxy-4-methylamphetamine)], 5.83 min. As to `OCCOCCN1CCN(C(c2ccccc2)c2ccc(Cl)cc2)CC1` (stereo unspecified) [Hydroxyzine], the LC retention time is 8.28 min. To `CCCS(=O)(=O)c1ccc2nc(NC(=O)OC)[nH]c2c1` [Albendazole sulfone] belongs 5.86 min.

As for `N#Cc1nn(-c2c(Cl)cc(C(F)(F)F)cc2Cl)c(N)c1S(=O)(=O)C(F)(F)F` [Fipronil-sulfone], the LC retention time is 11 min. Turning to `Cc1cccc(C)c1N(Cn1cccn1)C(=O)CS(C)=O` (stereo unspecified) [Metazachlor BH 479-11], the LC retention time is 5.54 min. To `Nc1cn[nH]c(=O)c1Cl` [Desphenyl chloridazon] belongs 2.32 min.

As to `CCC(C)C(=O)OC1CC(O)C=C2C=CC(C)C(CCC(O)CC(O)CC(=O)O)C21` (stereo unspecified) [Pravastatin], the LC retention time is 8.36 min. To `CCCCCn1cc(C(=O)c2ccc(OC)c3ccccc23)c2ccccc21` [JWH-081] belongs 12.7 min. To `CN(C)NC(=O)CCC(=O)O` [Daminozide] belongs 2.18 min; to `CN(C)CCc1c[nH]c2ccc(Cn3cncn3)cc12` [Rizatriptan], 3.49 min; to `c1ccc2c(c1)[nH]c1ccncc12` [5-Carboline], 8.7 min. To `O=C(O)COc1nc(Cl)c(Cl)cc1Cl` [Triclopyr] belongs 7.85 min. `O=C1Nc2ccc(Cl)cc2C(c2ccccc2)=NC1O` (stereo unspecified) [Oxazepam]: the LC retention time is 8.43 min. To `N=C(N)c1ccccc1` [Benzamidine] belongs 2.63 min.

In the case of `CCCCC(=O)N(Cc1ccc(-c2ccccc2-c2nn[nH]n2)cc1)C(C(=O)O)C(C)C` (stereo unspecified) [Valsartan], the LC retention time was 9.21 min. As for `COC(=O)c1c(Cl)c(Cl)c(C(=O)OC)c(Cl)c1Cl` [Chlorthal-dimethyl (DCPA. Dacthal) (NH4)], the LC retention time is 11.6 min.
